According to the supplement of paper PMC10307832:

Columns and labels:
Experiment in all cases: relative viability (nuclei count vs DMSO), 5 days (fraction); higher = more cells survive
Gemcitabine + Navitoclax = compound: Nc1ccn([C@@H]2O[C@H](CO)[C@@H](O)C2(F)F)c(=O)n1 [Gemcitabine] + CC1(C)CCC(c2ccc(Cl)cc2)=C(CN2CCN(c3ccc(C(=O)NS(=O)(=O)c4ccc(N[C@H](CCN5CCOCC5)CSc5ccccc5)c(S(=O)(=O)C(F)(F)F)c4)cc3)CC2)C1 [Navitoclax] (partner 0.5 µM)
Summary of the method: (§1)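 Values are medians from duplicate plates. Each reflects relative viability, defined as the nuclei count of treated wells over that of vehicle wells. Lung cancer cell lines in 1536-well plates were pin-tool dosed one day after seeding with one drug alone or with a fixed anchor-drug dose plus five library-drug doses (not always all listed) in √10 steps, then fixed, stained and imaged at 4× after 5 days.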

Gemcitabine + Linsitinib = compound: Nc1ccn([C@@H]2O[C@H](CO)[C@@H](O)C2(F)F)c(=O)n1 [Gemcitabine] + C[C@]1(O)C[C@@H](c2nc(-c3ccc4ccc(-c5ccccc5)nc4c3)c3c(N)nccn32)C1 [Linsitinib] (partner 1 µM)
Summary of the method: as §1

Gemcitabine + Alpelisib = compound: Nc1ccn([C@@H]2O[C@H](CO)[C@@H](O)C2(F)F)c(=O)n1 [Gemcitabine] + Cc1nc(NC(=O)N2CCC[C@H]2C(N)=O)sc1-c1ccnc(C(C)(C)C(F)(F)F)c1 [Alpelisib] (partner 2 µM)
Summary of the method: as §1

Gemcitabine + Vorinostat = compound: Nc1ccn([C@@H]2O[C@H](CO)[C@@H](O)C2(F)F)c(=O)n1 [Gemcitabine] + O=C(CCCCCCC(=O)Nc1ccccc1)NO [Vorinostat] (partner 1 µM)
Summary of the method: as §1

Row | Cell Line | relative viability (Gemcitabine + Navitoclax; first compound 0.001 µM) | relative viability (Gemcitabine + Navitoclax; first compound 0.003162 µM) | relative viability (Gemcitabine + Navitoclax; first compound 0.01 µM) | relative viability (Gemcitabine + Navitoclax; first compound 0.03162 µM) | relative viability (Gemcitabine + Navitoclax; first compound 0.1 µM) | relative viability (Gemcitabine + Linsitinib; first compound 0.001 µM) | relative viability (Gemcitabine + Linsitinib; first compound 0.003162 µM) | relative viability (Gemcitabine + Linsitinib; first compound 0.01 µM) | relative viability (Gemcitabine + Linsitinib; first compound 0.03162 µM) | relative viability (Gemcitabine + Linsitinib; first compound 0.1 µM) | relative viability (Gemcitabine + Alpelisib; first compound 0.001 µM) | relative viability (Gemcitabine + Alpelisib; first compound 0.003162 µM) | relative viability (Gemcitabine + Alpelisib; first compound 0.01 µM) | relative viability (Gemcitabine + Alpelisib; first compound 0.03162 µM) | relative viability (Gemcitabine + Alpelisib; first compound 0.1 µM) | relative viability (Gemcitabine + Vorinostat; first compound 0.001 µM) | relative viability (Gemcitabine + Vorinostat; first compound 0.003162 µM) | relative viability (Gemcitabine + Vorinostat; first compound 0.01 µM) | relative viability (Gemcitabine + Vorinostat; first compound 0.03162 µM) | relative viability (Gemcitabine + Vorinostat; first compound 0.1 µM)
1 | LCLC-97TM1 | 0.379 | 0.182 | 0.0922 | 0.0774 | 0.106 | 0.147 | 0.159 | 0.117 | 0.104 | 0.136 | 0.228 | 0.131 | 0.115 | 0.107 | 0.128 | 0.51 | 0.314 | 0.149 | 0.0661 | 0.0642
2 | HARA | 1.15 | 1.17 | 1.1 | 0.289 | 0.0674 | 1.05 | 1.01 | 0.832 | 0.293 | 0.0949 | 0.827 | 0.808 | 0.682 | 0.233 | 0.0894 | 0.497 | 0.538 | 0.444 | 0.0835 | 0.0515
3 | HCC-78 | 0.795 | 0.428 | 0.191 | 0.119 | 0.104 | 0.532 | 0.347 | 0.199 | 0.189 | 0.154 | 0.278 | 0.241 | 0.12 | 0.157 | 0.13 | 0.405 | 0.276 | 0.215 | 0.225 | 0.23
4 | NCI-H1666 | 0.872 | 0.836 | 0.393 | 0.281 | 0.275 | 0.789 | 0.882 | 0.435 | 0.286 | 0.285 | 0.863 | 0.92 | 0.364 | 0.232 | 0.279 | 1.02 | 0.955 | 0.963 | 0.927 | 0.576
5 | NCI-H2347 | 0.86 | 0.64 | 0.639 | 0.334 | 0.206 | 1 | 0.918 | 0.88 | 0.606 | 0.458 | 1.05 | 0.815 | 0.752 | 0.574 | 0.324 | 0.584 | 0.453 | 0.507 | 0.327 | 0.281
6 | NCI-H838 | 1.17 | 1.36 | 1.09 | 0.367 | 0.176 | 1.05 | 1.12 | 0.933 | 0.328 | 0.14 | 1.05 | 1.17 | 1.14 | 0.557 | 0.169 | 0.77 | 0.777 | 0.66 | 0.479 | 0.168
7 | NCI-H2023 | 0.986 | 0.794 | 0.667 | 0.135 | 0.0835 | 0.8 | 0.631 | 0.478 | 0.0945 | 0.0741 | 0.703 | 0.542 | 0.415 | 0.214 | 0.066 | 0.773 | 0.388 | 0.259 | 0.0711 | 0.061
8 | 201T | 1.17 | 1.24 | 1.24 | 1.19 | 0.494 | 1.07 | 1.06 | 1.06 | 0.663 | 0.339 | 0.939 | 0.97 | 0.943 | 0.396 | 0.331 | 0.999 | 1.04 | 0.93 | 0.43 | 0.253
9 | NCI-H1915 | 0.768 | 0.789 | 0.785 | 0.797 | 0.364 | 1.12 | 1.09 | 1.11 | 0.92 | 0.442 | 1.02 | 1.11 | 1.04 | 0.711 | 0.308 | 0.49 | 0.5 | 0.45 | 0.391 | 0.258
10 | NCI-H2009 | 1.25 | 0.87 | 0.366 | 0.0871 | 0.0975 | 1.23 | 0.722 | 0.29 | 0.156 | 0.119 | 1.15 | 0.552 | 0.276 | 0.12 | 0.112 | 0.604 | 0.552 | 0.289 | 0.115 | 0.0881
11 | BEN | 0.0578 | 0.0698 | 0.0605 | 0.0528 | 0.0444 | 1.07 | 0.653 | 0.255 | 0.11 | 0.0904 | 1.09 | 0.659 | 0.253 | 0.117 | 0.0816 | 0.653 | 0.55 | 0.309 | 0.253 | 0.331
12 | PC-14 | 0.986 | 0.813 | 0.619 | 0.035 | 0.0244 | 0.936 | 0.6 | 0.366 | 0.147 | 0.0669 | 1.02 | 0.688 | 0.468 | 0.0826 | 0.0459 | 0.82 | 0.165 | 0.0458 | 0.0558 | 0.0381
13 | SK-MES-1 | 0.929 | 0.723 | 0.158 | 0.0905 | 0.077 | 1.07 | 0.555 | 0.292 | 0.197 | 0.18 | 0.658 | 0.454 | 0.21 | 0.189 | 0.183 | 0.839 | 0.254 | 0.181 | 0.185 | 0.178
14 | NCI-H727 | 0.311 | 0.229 | 0.115 | 0.146 | 0.081 | 0.325 | 0.277 | 0.236 | 0.219 | 0.213 | 0.412 | 0.311 | 0.199 | 0.221 | 0.212 | 1.29 | 0.716 | 0.456 | 0.513 | 0.428
15 | NCI-H1355 | 0.937 | 0.461 | 0.168 | 0.109 | 0.112 | 0.816 | 0.606 | 0.221 | 0.123 | 0.129 | 0.756 | 0.569 | 0.135 | 0.156 | 0.116 | 0.632 | 0.473 | 0.274 | 0.166 | 0.146
16 | NCI-H1975 | 1.07 | 1.14 | 0.463 | 0.228 | 0.179 | 1.1 | 1.04 | 0.586 | 0.218 | 0.191 | 0.795 | 0.792 | 0.314 | 0.18 | 0.157 | 0.741 | 0.714 | 0.372 | 0.18 | 0.186
